Calls of active or inactive are those of the source. The rule behind the calls is not given here.
Experiments:
[1] = biological target: T1, NAD-dependent protein deacetylase sirtuin-1 (Homo sapiens) (UniProt Q96EB6); experiment: Inhibition of SIRT1 (unknown origin) assessed as reduction in Fluor de Lys deacetylation at 10 to 20 uM incubated for 5 mins followed by substrate addition measured after 45 mins in presence of NAD/NADH by fluorescence assay
T1 sequence (whole entry): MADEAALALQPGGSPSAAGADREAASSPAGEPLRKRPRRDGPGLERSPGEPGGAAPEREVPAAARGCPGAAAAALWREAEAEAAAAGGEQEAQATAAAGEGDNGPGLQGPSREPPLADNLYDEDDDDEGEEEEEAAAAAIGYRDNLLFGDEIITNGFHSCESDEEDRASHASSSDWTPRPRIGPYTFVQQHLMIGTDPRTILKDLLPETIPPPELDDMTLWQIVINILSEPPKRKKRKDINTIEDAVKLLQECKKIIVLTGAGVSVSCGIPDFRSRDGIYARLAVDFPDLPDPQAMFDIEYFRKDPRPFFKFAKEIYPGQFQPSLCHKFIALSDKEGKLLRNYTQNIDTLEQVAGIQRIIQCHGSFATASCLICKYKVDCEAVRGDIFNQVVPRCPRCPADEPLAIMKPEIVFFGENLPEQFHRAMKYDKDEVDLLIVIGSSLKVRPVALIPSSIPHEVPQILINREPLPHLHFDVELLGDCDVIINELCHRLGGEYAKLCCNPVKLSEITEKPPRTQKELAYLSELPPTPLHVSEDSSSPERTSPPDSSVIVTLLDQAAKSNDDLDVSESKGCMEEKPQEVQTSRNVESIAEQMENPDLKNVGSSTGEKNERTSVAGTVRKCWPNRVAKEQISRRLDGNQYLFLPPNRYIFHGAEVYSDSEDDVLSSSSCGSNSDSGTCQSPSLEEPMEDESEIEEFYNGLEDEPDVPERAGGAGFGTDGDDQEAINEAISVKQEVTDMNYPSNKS

[2] = biological target: T1, NAD-dependent protein deacetylase sirtuin-1 (Homo sapiens); experiment: Activation of SIRT1 (unknown origin) assessed as Fluor de Lys deacetylation at 10 to 20 uM incubated for 5 mins followed by substrate addition measured after 45 mins in presence of NAD/NADH by fluorescence assay

inhibition [1] | Activity [2] | SMILES
inactive | Active | CC(C)=CCC[C@](C)(O[C@@H]1O[C@H](CO)[C@@H](O)[C@H](O)[C@H]1O)[C@H]1CC[C@]2(C)[C@@H]1[C@H](O)C[C@@H]1[C@@]3(C)CC[C@H](O)C(C)(C)[C@@H]3[C@@H](O)C[C@]12C
inactive |  | CC(C)=CCC[C@@](C)(O)[C@H]1CC[C@]2(C)[C@@H]1[C@H](O)C[C@@H]1[C@@]3(C)CC[C@H](O[C@@H]4O[C@H](CO)[C@@H](O)[C@H](O)[C@H]4O)C(C)(C)[C@@H]3[C@@H](O)C[C@]12C
inactive | Active | C=C(CCC=C(C)C)[C@H]1CC[C@]2(C)[C@@H]1[C@H](O)C[C@@H]1[C@@]3(C)CC[C@H](O)C(C)(C)[C@@H]3[C@@H](O[C@@H]3O[C@H](CO)[C@@H](O)[C@H](O)[C@H]3O)C[C@]12C
inactive |  | C/C(=C\CCC(C)(C)O)[C@H]1CC[C@]2(C)[C@@H]1[C@H](O)C[C@@H]1[C@@]3(C)CC[C@H](O[C@@H]4O[C@H](CO)[C@@H](O)[C@H](O)[C@H]4O)C(C)(C)[C@@H]3[C@@H](O)C[C@]12C
inactive |  | CC(C)=CCC[C@@](C)(O)[C@H]1CC[C@]2(C)[C@@H]1[C@H](O)C[C@@H]1[C@@]3(C)CC[C@H](O)C(C)(C)[C@@H]3[C@@H](O[C@@H]3O[C@H](CO)[C@@H](O)[C@H](O)[C@H]3O[C@@H]3O[C@@H](C)[C@H](O)[C@@H](O)[C@H]3O)C[C@]12C
inactive |  | C=C(CCC=C(C)C)[C@H]1CC[C@]2(C)[C@@H]1[C@H](O)C[C@@H]1[C@@]3(C)CC[C@H](O)C(C)(C)[C@@H]3[C@@H](O[C@@H]3O[C@H](CO)[C@@H](O)[C@H](O)[C@H]3O[C@@H]3O[C@@H](C)[C@H](O)[C@@H](O)[C@H]3O)C[C@]12C
inactive | Active | CC(C)=CCC[C@](C)(O)[C@H]1CC[C@]2(C)[C@@H]1[C@H](O)C[C@@H]1[C@@]3(C)CC[C@H](O[C@@H]4O[C@H](CO)[C@@H](O)[C@H](O)[C@H]4O)C(C)(C)[C@@H]3[C@@H](O)C[C@]12C

Second part, the compound before the results:

SMILES | inhibition [1] | Activity [2]
NC(=O)c1cccnc1 | inactive | 
CC(C)=CCC[C@](C)(O)[C@H]1CC[C@]2(C)[C@@H]1[C@H](O)C[C@@H]1[C@@]3(C)CC[C@H](O)C(C)(C)[C@@H]3CC[C@]12C |  | Active
CC(C)=CCC[C@@](C)(O)[C@H]1CC[C@]2(C)[C@@H]1[C@H](O)C[C@@H]1[C@@]3(C)CC[C@H](O[C@@H]4O[C@H](CO)[C@@H](O)[C@H](O)[C@H]4O)C(C)(C)[C@@H]3CC[C@]12C | inactive | 
C/C(=C/CC[C@@](C)(O)[C@H]1CC[C@]2(C)[C@@H]1[C@H](O)C[C@@H]1[C@@]3(C)CC[C@H](O)C(C)(C)[C@@H]3[C@@H](O)C[C@]12C)CO | inactive | 
CCOC(C)(C)CC/C=C(\C)[C@H]1CC[C@]2(C)[C@@H]1[C@H](O)C[C@@H]1[C@@]3(C)CC[C@H](O)C(C)(C)[C@@H]3[C@@H](O)C[C@]12C | inactive | 
CC(C)=CCC[C@@](C)(O)[C@H]1CC[C@]2(C)[C@@H]1[C@H](O)C[C@@H]1[C@@]3(C)CC[C@H](O[C@@H]4O[C@H](CO)[C@@H](O)[C@H](O)[C@H]4O[C@@H]4O[C@H](CO)[C@@H](O)[C@H](O)[C@H]4O)C(C)(C)[C@@H]3CC[C@]12C | inactive | Active
CC(C)=CCC[C@](C)(O)[C@H]1CC[C@]2(C)[C@@H]1[C@H](O)C[C@@H]1[C@@]3(C)CC[C@H](O)C(C)(C)[C@@H]3[C@@H](O[C@@H]3O[C@H](CO)[C@@H](O)[C@H](O)[C@H]3O[C@@H]3O[C@@H](C)[C@H](O)[C@@H](O)[C@H]3O)C[C@]12C | inactive | 
CC(C)(O)CCC[C@](C)(O)[C@H]1CC[C@]2(C)[C@@H]1[C@H](O)C[C@@H]1[C@@]3(C)CC[C@H](O)C(C)(C)[C@@H]3[C@@H](O)C[C@]12C | inactive | inactive
C/C(=C/CCC(C)(C)O)[C@H]1CC[C@]2(C)[C@@H]1[C@H](O)C[C@@H]1[C@@]3(C)CC[C@H](O)C(C)(C)[C@@H]3[C@@H](O)C[C@]12C | inactive | 
CC(C)=CCC[C@](C)(O)[C@H]1CC[C@]2(C)[C@@H]1[C@H](O)C[C@@H]1[C@@]3(C)CC[C@H](O[C@@H]4O[C@H](CO)[C@@H](O)[C@H](O)[C@H]4O)C(C)(C)[C@@H]3CC[C@]12C | inactive | Active
CC(C)=CCC[C@](C)(O)[C@H]1CC[C@]2(C)[C@@H]1[C@H](O)C[C@@H]1[C@@]3(C)CC[C@H](O[C@@H]4O[C@H](CO)[C@@H](O)[C@H](O)[C@H]4O[C@@H]4O[C@H](CO)[C@@H](O)[C@H](O)[C@H]4O)C(C)(C)[C@@H]3CC[C@]12C | inactive | Active
Oc1ccc(/C=C/c2cc(O)cc(O)c2)cc1 | inactive | 
CC(C)=CC/C=C(\C)[C@H]1CC[C@]2(C)[C@@H]1[C@H](O)C[C@@H]1[C@@]3(C)CC[C@H](O)C(C)(C)[C@@H]3[C@@H](O[C@@H]3O[C@H](CO)[C@@H](O)[C@H](O)[C@H]3O)C[C@]12C | inactive | Active
CC(C)=CC/C=C(\C)[C@H]1CC[C@]2(C)[C@@H]1[C@H](O)C[C@@H]1[C@@]3(C)CC[C@H](O[C@@H]4O[C@H](CO)[C@@H](O)[C@H](O)[C@H]4O[C@@H]4O[C@H](CO)[C@@H](O)[C@H](O)[C@H]4O)C(C)(C)[C@@H]3CC[C@]12C | inactive | Active
C/C(=C\CCC(C)(C)O)[C@H]1CC[C@]2(C)[C@@H]1[C@H](O)C[C@@H]1[C@@]3(C)CC[C@H](O)C(C)(C)[C@@H]3[C@@H](O)C[C@]12C | inactive | 
CC(C)(O)CCC[C@@](C)(O)[C@H]1CC[C@]2(C)[C@@H]1[C@H](O)C[C@@H]1[C@@]3(C)CC[C@H](O)C(C)(C)[C@@H]3[C@@H](O)C[C@]12C | inactive | inactive

Reference: ChEMBL document CHEMBL4184125, “SIRT1 activator isolated from artificial gastric juice incubate of total saponins in stems and leaves of Panax ginseng” (Bioorg Med Chem Lett, 2018)
